Data taken from US7410955B2, “Therapeutic use of agonist ligands specific to G2A receptor” (Biosynergen, Inc., priority 2002, dated 2008).

Experiments:
CLP-induced Sepsis model = test: CLP-induced sepsis model; type: in vivo, ICR mice; settings: 10 mg/kg intraperitoneal, same methods as Example 6-2 (four times at 12 hour intervals, 2 hours after CLP)
Protocol: After ICR mice (25-30 g in body weight; MJ Ltd.) had been anesthetized with pentobarbital, right abdominal sites of the mice were dissected in a length of 1 cm to expose their cecum, and sites below the ileocecal valve were ligated. And then, after 4˜6 punctures had been created on the cecum with 21-gauge needle, the abdomen was sutured again to cause peritonitis, thereby inducing Sepsis.
After the peritoneal cavity of mice had been exposed, it was washed with sterilized saline (2 ml). The resultant solution was diluted with HBSS (Sigma Chemical Co., USA) in a ratio of 1/1000, and then 10 μl of each diluted solution was spread on Trypticase Soy agar (BBL, Becton Dickinson Co., USA) plates. After overnight incubation at 37° C., colony forming unit (CFU) was measured.
7 mice were administered with 1-stearoyl LPC (Sigma Chemical Co., USA) dissolved in 1% BSA solution containing no fatty acid in an amount of 10 mg/kg by subcutaneous injection 2 and 14 hours after the CLP surgery, respectively (experimental group). The remaining 7 mice were administered with 1% BSA solution containing no fatty acid of the same amount as above in the same manner (control group). The numbers of intraperitoneal E. coli cells in the ICR mice of experimental and control groups were measured in accordance with Reference Example 3, 24 hours after the CLP surgery.
Each 10 ICR mice were intraperitoneally administered with 1-stearoyl LPC (Sigma Chemical Co., USA) dissolved in 1% BSA solution containing no fatty acid in amounts of 5, 10, and 20 mg/kg, respectively, four times at intervals of 12 hours, 2 hours after the CLP surgery (experimental group-1, -2 and -3). The remaining 10 ICR mice were administered only with 1% BSA solution containing no fatty acid (control group). And then, the survival rates of mice in experimental- and control groups were investigated over the lapse of time.
10 mice for the experimental group were intraperitoneally administered with 1-stearoyl LPC (Sigma Chemical Co., USA) dissolved in 1% BSA solution containing no fatty acid in an amount of 10 mg/kg, four times at intervals of 12 hours, 10 hours after the CLP surgery. The remaining 10 mice for the control group were administered only with 1% BSA solution containing no fatty acid. Thereafter, the survival rates of ICR mice in experimental- and control groups were investigated over the lapse of time.
CLP-induced Sepsis model mice were subcutaneously injected with SPC, instead of 1-stearoyl LPC, in dosages of 3 mg/kg and 30 mg/kg four times at intervals of 12 hours, 2 hours after the CLP surgery, respectively. The survival rates of mice were investigated.

neutrophils = test: Inhibition of anti-apoptosis of neutrophils by inflammation mediators (AcOr/EtBr staining); type: cell-based, human; settings: 15 μM and 30 μM, 1 hour before 1 μg/ml LPS, read after 24 hours
From the text: Neutrophils were isolated from healthy adults using discontinuous percoll gradient according to the method of Szucs, S. et al. (J. Immunol. Methods, 167: 245-251, 1994). First, plasmas were separated from heparinized whole blood, and red blood cells were depleted by dextran sedimentation. Thereafter, leukocytes were layered over a percoll gradient with densities of 1.077 and 1.094 (Pharmacia, Sweden). Separated neutrophil layers were recovered from the percoll gradient interface, and then washed with HBSS (Hank's balanced salt solution, Sigma Chemical Co., USA). The remaining pellet was resuspended in RPMI 1640 medium supplemented with 10% FBS (fetal bovine serum) and 2 mM gentamicin. As a result of the examination of the cytospin stained with Wright-Giemsa (Sigma Chemical Co., USA), it was observed that the resuspension solution contained 95% or more neutrophils. Also, as a result of examination using trypan blue dye exclusion method, 98% or more neutrophils were observed.
1×10^5 neutrophil cells isolated in above Example <1-1> were cultured in a 96-well plate to which RPMI1640 medium containing 10% FBS was added. Thereafter, they were treated with 1-stearoyl lysophosphatidylcoline (Sigma Chemical Co., USA) in concentrations of 15 μM and 30 μM, respectively. After 1 hour, they were treated with 1 μg/ml LPS (Sigma Chemical Co.). After 24 hours, the medium was removed from the plats, and the remaining cells were washed twice with PBS (phosphate-buffered saline) buffer at 4° C. The cells adhered to the bottom of the plate were all scraped and put into a 1.5-ml eppendorf tube. Then, they were centrifuged at 2500 rpm for 5 min, and the supernatant was removed. Again, 0.1 ml of PBS buffer at 4° C. was added to the pellet, which was then well mixed using pipetting. To 25 μl of the cell suspension was added 2 μl of AcOr/EtBr dye solution in which 100 μg/ml of acridine orange (AcOr) and 100 μg/ml of ethidium bromide (EtBr) were mixed. Then, the percentage of apoptotic cells/total cells was calculated with observing the neutrophil cells under a fluorescence microscope. […]

G2A = molecular target: T1, G2A (Homo sapiens, UniProt Q9UNW8); settings: reported by Kabarowski et al., Science 2001; cited from earlier work
T1 sequence (Q9UNW8 1-380): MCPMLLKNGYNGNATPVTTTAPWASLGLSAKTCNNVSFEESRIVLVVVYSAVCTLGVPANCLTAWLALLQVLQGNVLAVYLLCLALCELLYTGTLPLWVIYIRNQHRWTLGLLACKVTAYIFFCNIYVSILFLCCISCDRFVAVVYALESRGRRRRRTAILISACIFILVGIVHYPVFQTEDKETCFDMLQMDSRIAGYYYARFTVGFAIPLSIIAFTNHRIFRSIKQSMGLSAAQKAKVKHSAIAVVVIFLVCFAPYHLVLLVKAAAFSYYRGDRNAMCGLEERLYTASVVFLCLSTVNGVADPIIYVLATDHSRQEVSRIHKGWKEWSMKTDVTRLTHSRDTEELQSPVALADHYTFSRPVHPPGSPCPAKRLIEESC

Molecule	therapeutic effect against Sepsis (survival) (CLP-induced Sepsis model)	percentage of neutrophil apoptosis (apoptotic cells/total cells) that had been decreased by LPS (neutrophils)	affinity of G2A to the ligand (G2A)
CCCCCCCCCCCCCC(=O)OC[C@@H](O)COP(=O)([O-])OCC[N+](C)(C)C [1-myristoyl LPC, 1-myristoyl (14:0) lysophospatidylcholine]	excellent therapeutic effect		
CCCCCCCC/C=C\CCCCCCCC(=O)OCC(O)COP(=O)([O-])OCC[N+](C)(C)C (centres unmarked) [1-oleoyl LPC, 1-oleoyl (18:1) lysophosphatidylcholine]	excellent therapeutic effect		
CCCCCCCCCCCCC/C=C/[C@@H](O)[C@@H](N)COP(=O)([O-])OCC[N+](C)(C)C [SPC, sphingosylphosphorylcholine]		increased by SPC in a concentration-dependent manner	low affinity
lysophosphatidylcholine			high affinity
